Laboratory results published in US20220387608A1, “ADRENOMEDULLIN-ANALOGUES FOR LONG-TERM STABILIZATION AND THEIR USE” (Bayer Aktiengesellschaft, priority 2019, published 2022).
Positions of bridges follow the written chain, without caps; N, C: chain ends. Non-standard residues stand in square brackets, D forms with d. Residues, ends and D or L forms follow the SMILES beside them. *: point of attachment. X1 = CN(C)c1ccc2c(c1)Oc1cc(N(C)C)ccc1C21OC(=O)c2ccc(C(=O)*)cc21; C18 diacid = O=C(O)CCCCCCCCCCCCCCCCC(=O)*; PEG3 = NCCOCCOCCOCCC(=O)O; Dap = NC[C@H](N)C(=O)O

Assay: Stability determination of TAMRA-labelled adrenomedullin analogues in human blood plasma
Type: in vitro ADME
Conditions: 37° C., 10^-5 M, slow-decay phase half-life, read-out: t1/2 (slow) (converted)
Description: The stability of the peptides was investigated using fluorescently labeled analogues, which were prepared as described above.
The TAMRA-labeled analogues were dissolved in 1.5 m1 of human blood plasma to a concentration of 10^−5 M and incubated at 37° C. under constant shaking. Samples of 150 μl were taken at different time points and precipitated with 300 μl Ethanol/ACN (1:1) for at least 1 h at −20° C. After centrifugation for 30 s at 12000 rpm, the supernatant was collected and incubated at −20° C. for at least 3 h. Subsequently, it was transferred into Costar® Spin-X® Centrifuge Tube Filters (0.22 μm) and centrifuged for 1 h at 12000 rpm. The samples were analyzed by RP-HPLC using a VariTide RPC column (Agilent Technologies, 250 mm×4.6 mm, […], 200 Å) with linear gradients of 0.1% TFA in water and 0.08% TFA in ACN; fluorescence measurement (λex=525 nm; λem=572 nm) was used for the detection of the analogues and their N-terminal fragments. The percentage of intact peptide was determined by peak integration. The values of peaks containing additional cleavage fragments were corrected by comparing intensities of cleavage fragments and intact peptide using MALDI-MS analysis (UltraflexIII, Bruker). The stability of the peptides was calculated with GraphPad Prism 5 (GraphPad Software) using a two phase exponential decay function for the determination of slow-decay phase half-lives (ln(2)/Kslow; Kslow: rate constant of slow part of exponential decay).

SMILES	half-life
CC[C@H](C)[C@H](NC(=O)[C@H](CCC(N)=O)NC(=O)[C@H](Cc1c[nH]cn1)NC(=O)[C@H](C)NC(=O)[C@H](CC(C)C)NC(=O)[C@H](CCCCN)NC(=O)[C@H](CCC(N)=O)NC(=O)[C@@H](NC(=O)[C@@H](NC(=O)[C@@H]1CSSC[C@H](NC(=O)CNC(=O)[C@H](CCCCNC(=O)CCCCCCCCCCCCCCCCC(=O)O)NC(=O)c2ccc3c(c2)C2(OC3=O)c3ccc(N(C)C)cc3Oc3cc(N(C)C)ccc32)C(=O)N[C@@H](CCCNC(=N)N)C(=O)N[C@@H](Cc2ccccc2)C(=O)NCC(=O)N[C@@H]([C@@H](C)O)C(=O)N1)[C@@H](C)O)C(C)C)C(=O)N[C@@H](Cc1ccc(O)cc1)C(=O)N[C@@H](CCC(N)=O)C(=O)N[C@@H](Cc1ccccc1)C(=O)N[C@H](C(=O)NCCOCCOCCOCCC(=O)N[C@@H](CC(=O)O)C(=O)N[C@@H](CC(N)=O)C(=O)N[C@H](C(=O)N[C@@H](C)C(=O)N1CCC[C@H]1C(=O)N[C@H]1CCCCNC(=O)C[C@@H](C(=O)N2CCC[C@H]2C(=O)N[C@@H](CCC(N)=O)C(=O)NCC(=O)N[C@@H](Cc2ccc(O)cc2)C(N)=O)NC(=O)[C@H]([C@@H](C)CC)NC(=O)[C@H](CCCCN)NC(=O)[C@H](CO)NC1=O)C(C)C)[C@@H](C)O [TAM-14] (X1-K(C18 diacid)GCRFGTCTVQKLAHQIYQFT[PEG3]DNVAPKSKIDPQGY-NH2; disulfide 3-8; lactam 28-32)	> 144 h
CC[C@H](C)[C@H](NC(=O)[C@H](CCC(N)=O)NC(=O)[C@H](Cc1c[nH]cn1)NC(=O)[C@H](C)NC(=O)[C@H](CC(C)C)NC(=O)[C@H](CCCCN)NC(=O)[C@H](CCC(N)=O)NC(=O)[C@@H](NC(=O)[C@@H](NC(=O)[C@@H]1CCC(=O)NC[C@H](NC(=O)CNC(=O)[C@H](CCCCNC(=O)CCCCCCCCCCCCCCCCC(=O)O)NC(=O)c2ccc3c(c2)C2(OC3=O)c3ccc(N(C)C)cc3Oc3cc(N(C)C)ccc32)C(=O)N[C@@H](CCCNC(=N)N)C(=O)N[C@@H](Cc2ccccc2)C(=O)NCC(=O)N[C@@H]([C@@H](C)O)C(=O)N1)[C@@H](C)O)C(C)C)C(=O)N[C@@H](Cc1ccc(O)cc1)C(=O)N[C@@H](CCC(N)=O)C(=O)N[C@@H](Cc1ccccc1)C(=O)N[C@H](C(=O)N[C@@H](CC(=O)O)C(=O)N[C@@H](CCCCN)C(=O)N[C@@H](CC(=O)O)C(=O)N[C@@H](CCCCN)C(=O)N[C@@H](CC(=O)O)C(=O)N[C@@H](CC(N)=O)C(=O)N[C@H](C(=O)N[C@@H](C)C(=O)N1CCC[C@H]1C(=O)N[C@@H](CCCNC(=N)N)C(=O)N[C@@H](CO)C(=O)N[C@@H](CCCCN)C(=O)N[C@H](C(=O)N[C@@H](CO)C(=O)N1CCC[C@H]1C(=O)N[C@@H](CCC(N)=O)C(=O)NCC(=O)N[C@@H](Cc1ccc(O)cc1)C(N)=O)[C@@H](C)CC)C(C)C)[C@@H](C)O [TAM-15] (X1-K(C18 diacid)G[Dap]RFGTETVQKLAHQIYQFTDKDKDNVAPRSKISPQGY-NH2; lactam 3-8)	> 144 h
CC[C@H](C)[C@H](NC(=O)[C@H](CCC(N)=O)NC(=O)[C@H](Cc1c[nH]cn1)NC(=O)[C@H](C)NC(=O)[C@H](CC(C)C)NC(=O)[C@H](CCCCN)NC(=O)[C@H](CCC(N)=O)NC(=O)[C@@H](NC(=O)[C@@H](NC(=O)[C@@H]1CCC(=O)NC[C@H](NC(=O)CNC(=O)[C@H](CCCCNC(=O)CCCCCCCCCCCCCCCCC(=O)O)NC(=O)c2ccc3c(c2)C2(OC3=O)c3ccc(N(C)C)cc3Oc3cc(N(C)C)ccc32)C(=O)N[C@@H](CCCNC(=N)N)C(=O)N[C@@H](Cc2ccccc2)C(=O)NCC(=O)N[C@@H]([C@@H](C)O)C(=O)N1)[C@@H](C)O)C(C)C)C(=O)N[C@@H](Cc1ccc(O)cc1)C(=O)N[C@@H](CCC(N)=O)C(=O)N[C@@H](Cc1ccccc1)C(=O)N[C@H](C(=O)N[C@@H](CC(=O)O)C(=O)N[C@@H](CCCCN)C(=O)N[C@@H](CC(=O)O)C(=O)N[C@@H](CCCCN)C(=O)N[C@@H](CC(=O)O)C(=O)N[C@@H](CC(N)=O)C(=O)N[C@H](C(=O)N[C@@H](C)C(=O)N1CCC[C@H]1C(=O)N[C@H]1CCCCNC(=O)C[C@@H](C(=O)N2CCC[C@H]2C(=O)N[C@@H](CCC(N)=O)C(=O)NCC(=O)N[C@@H](Cc2ccc(O)cc2)C(N)=O)NC(=O)[C@H]([C@@H](C)CC)NC(=O)[C@H](CCCCN)NC(=O)[C@H](CO)NC1=O)C(C)C)[C@@H](C)O [TAM-16] (X1-K(C18 diacid)G[Dap]RFGTETVQKLAHQIYQFTDKDKDNVAPKSKIDPQGY-NH2; lactam 3-8, 31-35)	> 144 h
CC[C@H](C)[C@H](NC(=O)[C@H](CCC(N)=O)NC(=O)[C@H](Cc1c[nH]cn1)NC(=O)[C@H](C)NC(=O)[C@H](CC(C)C)NC(=O)[C@H](CCCCN)NC(=O)[C@H](CCC(N)=O)NC(=O)[C@@H](NC(=O)[C@@H](NC(=O)[C@@H]1CCC(=O)NC[C@H](NC(=O)CNC(=O)[C@H](CCCCNC(=O)CCCCCCCCCCCCCCCCC(=O)O)NC(=O)c2ccc3c(c2)C2(OC3=O)c3ccc(N(C)C)cc3Oc3cc(N(C)C)ccc32)C(=O)N[C@@H](CCCNC(=N)N)C(=O)N[C@@H](Cc2ccccc2)C(=O)NCC(=O)N[C@@H]([C@@H](C)O)C(=O)N1)[C@@H](C)O)C(C)C)C(=O)N[C@@H](Cc1ccc(O)cc1)C(=O)N[C@@H](CCC(N)=O)C(=O)N[C@@H](Cc1ccccc1)C(=O)N[C@H](C(=O)NCCOCCOCCOCCC(=O)N[C@@H](CC(=O)O)C(=O)N[C@@H](CC(N)=O)C(=O)N[C@H](C(=O)N[C@@H](C)C(=O)N1CCC[C@H]1C(=O)N[C@H]1CCCCNC(=O)C[C@@H](C(=O)N2CCC[C@H]2C(=O)N[C@@H](CCC(N)=O)C(=O)NCC(=O)N[C@@H](Cc2ccc(O)cc2)C(N)=O)NC(=O)[C@H]([C@@H](C)CC)NC(=O)[C@H](CCCCN)NC(=O)[C@H](CO)NC1=O)C(C)C)[C@@H](C)O [TAM-17] (X1-K(C18 diacid)G[Dap]RFGTETVQKLAHQIYQFT[PEG3]DNVAPKSKIDPQGY-NH2; lactam 3-8, 28-32)	> 144 h
CC[C@H](C)[C@H](NC(=O)[C@H](CCC(N)=O)NC(=O)[C@H](Cc1c[nH]cn1)NC(=O)[C@H](C)NC(=O)[C@H](CC(C)C)NC(=O)[C@H](CCCCN)NC(=O)[C@H](CCC(N)=O)NC(=O)[C@@H](NC(=O)[C@@H](NC(=O)[C@@H]1CSSC[C@H](NC(=O)CNC(=O)CNC(=O)c2ccc3c(c2)C2(OC3=O)c3ccc(N(C)C)cc3Oc3cc(N(C)C)ccc32)C(=O)N[C@@H](CCCNC(=N)N)C(=O)N[C@@H](Cc2ccccc2)C(=O)NCC(=O)N[C@@H]([C@@H](C)O)C(=O)N1)[C@@H](C)O)C(C)C)C(=O)N[C@@H](Cc1ccc(O)cc1)C(=O)N[C@@H](CCC(N)=O)C(=O)N[C@@H](Cc1ccccc1)C(=O)N[C@H](C(=O)N[C@@H](CC(=O)O)C(=O)N[C@@H](CCCCN)C(=O)N[C@@H](CC(=O)O)C(=O)N[C@@H](CCCCN)C(=O)N[C@@H](CC(=O)O)C(=O)N[C@@H](CC(N)=O)C(=O)N[C@H](C(=O)N[C@@H](C)C(=O)N1CCC[C@H]1C(=O)N[C@@H](CCCNC(=N)N)C(=O)N[C@@H](CO)C(=O)N[C@@H](CCCCN)C(=O)N[C@H](C(=O)N[C@@H](CO)C(=O)N1CCC[C@H]1C(=O)N[C@@H](CCC(N)=O)C(=O)NCC(=O)N[C@@H](Cc1ccc(O)cc1)C(N)=O)[C@@H](C)CC)C(C)C)[C@@H](C)O [TAM-control, reference compound]	12 h
